# Measurements from ChEMBL document CHEMBL1201862, “PubChem BioAssay data set” (2004).
# Activity calls are given as the source filed them. The rule behind the calls is not given here.
# Legend:
# [1] = Luminescence-based dose response cell-based high throughput screening assay for cytotoxic compounds using the IEC-6 intestinal epithelial cell line. [Related pubchem assays: 1858 (Summary AID.), 1825 (Counterscreen.), 1907 (Confirmation screen.)]; assay type: functional
# Exodeoxyribonuclease V = biological target: T1, Exodeoxyribonuclease V (Escherichia coli (strain K12), UniProt P04993+P07648+P08394); assay: RecBCD inhibition via phage-restricted bacterial growth – absorbance, V66 E. coli, mutant T4 phage, counter-screen for AddAB inhibitor project, dose response (AID 492957); assay type: functional, cell-based, Escherichia coli str. K-12 substr. MG1655
# T1 sequence (P04993 whole entry): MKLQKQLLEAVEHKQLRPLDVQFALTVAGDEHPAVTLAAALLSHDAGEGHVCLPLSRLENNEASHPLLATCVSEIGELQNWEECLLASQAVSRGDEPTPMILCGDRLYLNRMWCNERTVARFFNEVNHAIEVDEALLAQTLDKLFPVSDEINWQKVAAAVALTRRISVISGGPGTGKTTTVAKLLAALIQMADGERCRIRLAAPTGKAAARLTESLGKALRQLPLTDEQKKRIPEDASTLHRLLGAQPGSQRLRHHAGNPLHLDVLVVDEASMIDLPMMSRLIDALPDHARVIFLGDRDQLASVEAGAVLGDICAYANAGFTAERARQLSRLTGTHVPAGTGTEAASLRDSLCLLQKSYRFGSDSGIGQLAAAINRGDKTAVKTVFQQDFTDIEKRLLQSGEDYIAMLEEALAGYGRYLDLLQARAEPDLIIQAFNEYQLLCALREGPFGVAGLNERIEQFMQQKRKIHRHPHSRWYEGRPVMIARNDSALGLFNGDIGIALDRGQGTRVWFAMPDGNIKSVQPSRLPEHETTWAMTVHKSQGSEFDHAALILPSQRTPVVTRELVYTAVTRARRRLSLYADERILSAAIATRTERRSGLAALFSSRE
# T1 sequence (P07648 whole entry): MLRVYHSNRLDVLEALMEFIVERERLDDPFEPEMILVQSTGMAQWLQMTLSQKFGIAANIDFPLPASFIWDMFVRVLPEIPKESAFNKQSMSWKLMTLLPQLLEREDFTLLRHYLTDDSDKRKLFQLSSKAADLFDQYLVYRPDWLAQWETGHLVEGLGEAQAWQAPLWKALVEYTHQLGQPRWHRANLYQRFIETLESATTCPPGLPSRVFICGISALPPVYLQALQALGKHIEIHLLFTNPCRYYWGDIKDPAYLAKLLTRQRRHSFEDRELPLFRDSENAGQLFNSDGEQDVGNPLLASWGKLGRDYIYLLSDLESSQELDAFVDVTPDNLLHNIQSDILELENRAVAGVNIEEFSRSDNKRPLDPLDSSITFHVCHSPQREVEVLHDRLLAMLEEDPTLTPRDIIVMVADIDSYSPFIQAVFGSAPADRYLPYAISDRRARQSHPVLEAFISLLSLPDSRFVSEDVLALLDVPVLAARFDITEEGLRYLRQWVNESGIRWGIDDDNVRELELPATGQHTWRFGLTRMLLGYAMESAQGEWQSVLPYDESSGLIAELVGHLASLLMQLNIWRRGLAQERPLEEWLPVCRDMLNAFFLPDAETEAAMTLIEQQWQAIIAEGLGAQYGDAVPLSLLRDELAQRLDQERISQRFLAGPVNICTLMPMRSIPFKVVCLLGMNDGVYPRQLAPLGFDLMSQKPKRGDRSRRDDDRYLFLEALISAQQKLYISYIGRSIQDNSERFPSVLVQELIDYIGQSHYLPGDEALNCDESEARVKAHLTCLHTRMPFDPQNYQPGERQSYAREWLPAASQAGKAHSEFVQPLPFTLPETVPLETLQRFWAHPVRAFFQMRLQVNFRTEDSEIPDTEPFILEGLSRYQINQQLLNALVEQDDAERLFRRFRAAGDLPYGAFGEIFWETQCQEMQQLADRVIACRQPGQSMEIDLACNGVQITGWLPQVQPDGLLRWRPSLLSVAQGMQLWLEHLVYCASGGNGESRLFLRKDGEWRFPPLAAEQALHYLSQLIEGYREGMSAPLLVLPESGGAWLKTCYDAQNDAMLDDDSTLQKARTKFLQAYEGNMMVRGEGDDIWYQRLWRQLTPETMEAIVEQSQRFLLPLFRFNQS
# T1 sequence (P08394 whole entry): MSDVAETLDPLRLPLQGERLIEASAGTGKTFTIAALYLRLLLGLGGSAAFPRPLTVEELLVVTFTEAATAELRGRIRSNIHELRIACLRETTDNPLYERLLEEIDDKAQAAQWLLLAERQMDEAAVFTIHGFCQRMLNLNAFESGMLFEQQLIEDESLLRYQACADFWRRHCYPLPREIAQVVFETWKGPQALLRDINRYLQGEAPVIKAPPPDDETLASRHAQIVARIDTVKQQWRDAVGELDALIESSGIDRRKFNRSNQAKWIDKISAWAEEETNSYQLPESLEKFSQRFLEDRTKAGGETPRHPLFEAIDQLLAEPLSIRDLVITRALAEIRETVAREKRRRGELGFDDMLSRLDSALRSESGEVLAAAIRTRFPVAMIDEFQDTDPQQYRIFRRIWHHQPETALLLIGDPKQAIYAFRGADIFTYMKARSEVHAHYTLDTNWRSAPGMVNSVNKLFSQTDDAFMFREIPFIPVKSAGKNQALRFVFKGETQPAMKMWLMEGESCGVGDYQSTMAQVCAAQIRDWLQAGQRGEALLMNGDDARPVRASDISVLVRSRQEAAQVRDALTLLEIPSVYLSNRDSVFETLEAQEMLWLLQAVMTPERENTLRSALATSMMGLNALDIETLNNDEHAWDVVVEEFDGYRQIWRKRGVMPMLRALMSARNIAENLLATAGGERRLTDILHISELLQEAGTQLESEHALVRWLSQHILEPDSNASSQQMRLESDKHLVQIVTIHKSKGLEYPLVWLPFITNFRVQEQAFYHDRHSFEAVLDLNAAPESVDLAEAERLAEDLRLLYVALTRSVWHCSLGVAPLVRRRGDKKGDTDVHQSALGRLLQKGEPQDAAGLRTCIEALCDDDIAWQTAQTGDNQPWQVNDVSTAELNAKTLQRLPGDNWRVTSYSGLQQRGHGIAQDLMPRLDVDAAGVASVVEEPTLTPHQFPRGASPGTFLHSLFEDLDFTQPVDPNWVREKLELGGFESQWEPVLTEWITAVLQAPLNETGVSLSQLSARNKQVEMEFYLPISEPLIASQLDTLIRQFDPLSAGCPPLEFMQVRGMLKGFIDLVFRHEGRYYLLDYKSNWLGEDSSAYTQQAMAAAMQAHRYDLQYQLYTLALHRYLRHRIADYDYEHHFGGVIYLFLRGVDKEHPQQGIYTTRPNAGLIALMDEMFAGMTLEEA
smiles,measurement,setting,value
CCCCC(=O)NC(c1ccc(N(C)C)cc1)c1ccc2cccnc2c1O (configuration not stated),IC50,[1],1.72 µM (active)
same,IC50,Exodeoxyribonuclease V,> 119 µM (inactive)
